{"source": "patent US20110189266A1", "about": "“CORTICOSTEROID MICROVESICLES FOR TREATMENT OF CARDIOVASCULAR DISEASES” (MOUNT SINAI SCHOOL OF MEDICINE OF NEW YORK UNIVERSITY, priority 2008, published 2011)", "key": {"neo-intimal formation": {"system": "neo-intimal formation", "settings": "prednisone- and Taxus stent-treated animals; Ribichini et al 2007; cited from earlier work"}, "[1]": {"system": "atherosclerotic plaques of the abdominal aorta", "experiment": "18F-FDG PET/CT of the abdominal aorta (mean SUV), rabbit model of atherosclerosis", "type": "in vivo, New Zealand White (NZW) rabbits", "settings": "single i.v. injection 15 mg/kg", "description": "Seventeen male New Zealand White (NZW) rabbits (mean age 7 months; mean weight 3.5±0.2 kg; Covance) were included in this study. Aortic atherosclerotic plaques were induced in 15 NZW rabbits, through a well established model^18, by a combination of 7 months of high cholesterol diet (4.7% palm oil and 0.3% cholesterol-enriched diet; Research Diet Inc.) and a repeated balloon injury of the aorta (two weeks and six weeks after starting the high cholesterol diet). Aortic injury was performed from the aortic arch to the iliac bifurcation with a 4F Fogarty embolectomy catheter introduced through the femoral artery. […]\nPET/CT images were analyzed on a Xeleris workstation. […] SUV was calculated by dividing the tissue concentration (kBq/mL) by the injected dose per gram of body weight (kBq/g).\nThe scans allow the quantification of the standard uptake value (SUV) of ^18F-FDG in the abdominal aorta. The SUV is the decay-corrected tissue concentration of FDG (in kBq/g), corrected for injected FDG dose and body weight (in kBq/g), and is a well-recognized method for quantification of FDG PET data. Prior to start of treatment, the aortas of six atherosclerotic rabbits and two non-atherosclerotic rabbits were measured to establish mean SUV levels of atherosclerotic and non-atherosclerotic rabbits."}, "[2]": {"system": "atherosclerotic plaque permeability, aortic wall", "experiment": "Dynamic contrast enhanced MRI (DCE-MRI) to quantify changes in plaque permeability", "type": "in vivo, New Zealand White (NZW) rabbits", "settings": "before vs two days after administration"}}, "data": [{"compound": "C[C@]12C=CC(=O)C=C1CC[C@@H]1[C@@H]2C(=O)C[C@@]2(C)[C@H]1CC[C@]2(O)C(=O)CO", "note": "[prednisone]", "values": [{"measurement": "neo-intimal formation", "setting": "neo-intimal formation", "result": "reduced neo-intimal formation"}]}, {"compound": "prednisolone phosphate disodium salt [free circulating glucocorticoids]", "values": [{"measurement": "SUV differences between pre, and two and seven days post treatment", "setting": "[1]", "result": "no significant SUV differences"}, {"measurement": "SUV change one week post-treatment", "setting": "[1]; one week post-treatment vs pre, p=0.006 (liposomal), p=0.40 (free)", "result": "no SUV reduction"}, {"measurement": "change of DCE-MRI area under the curve (AUC) of the aortic wall", "setting": "[2]", "result": "not"}]}]}
